Measured values published in patent publication US7652037B2, “Methods of lowering lipid levels in a mammal” (City Of Hope, priority 2003, dated 2010).

What was measured:
[1] = tested on: rats with diabetic nephropathy; conditions: rats with diabetic nephropathy (Forbes et al.); cited from earlier work
[2] = tested on: diabetic and hyperlipidemic rats; conditions: diabetic and hyperlipidemic rats (Degenhardt et al.; Alderson et al.); cited from earlier work
[3] = Superoxide production, methylglyoxal with N-α-acetyl-lysine, WST-1 assay
Method: The superoxide radical scavenging activity of the compounds was evaluated using the WST-1 method described in Ukeda et al., Anal. Sci. 18:1151-1154, 2002. Briefly, methylglyoxal, was incubated with or without N-α-acetyl-lysine in 0.05 M chelex-treated sodium phosphate buffer, pH 7.4, in the presence of various concentrations of the inhibitor compounds. The production of superoxide was monitored spectrophotometrically at 438 nm, and compared with superoxide dismutase and Tiron, two known superoxide radical scavengers.

[4] = Inhibition of copper-catalyzed oxidation of ascorbic acid (Cu2+ chelating activity); conditions: 500 nmol/L CuCl2, 500 μmol/L ascorbic acid, phosphate buffer pH 7.4, 60 minutes; read-out: IC50, concentration that inhibited the rate of AA oxidation by 50%
Method: In vitro measurement of the kinetics of inhibition of copper-catalyzed oxidation of ascorbic acid was performed according to the methods of Price et al., J. Biol. Chem. 276:48967-48972, 2001. Briefly, CuCl2 and various concentrations of inhibitor compounds were pre-incubated in chelex-treated 20 mmol/L phosphate buffer, pH 7.4, for 5 minutes. Ascorbic acid then was added (50 μL of 10 mmol/L in water) to initiate the reaction (1 mL total reaction volume). The final concentrations of CuCl2 and ascorbic acid in the reaction were 500 nmol/L and 500 μmol/L, respectively. Aliquots (135 μL) were removed at 0 and 60 minutes and transferred to autoinjector vials containing 15 μL of 10 mmol/l DTPA. Samples were analyzed by reversed phase HPLC on an XTerra™ RP18 column (250 mm×4.6 mm, 5 μm) with an XTerra™ RP18 5 μm guard column using a Waters® 2690 Separator Module equipped with auto-injector and Millenium® 32 software. Solvents and gradient were all used as described in Dillon et al., Life Sci. 72:1583-1594, 2003. The absorbance of ascorbic acid was measured at 244 nm and the peak area was obtained to estimate the percent of ascorbic acid remaining versus time. For each inhibitor compound, the concentration that inhibited the rate of AA oxidation by 50% (IC50), was calculated with respect to the control using Prism™ software.

[5] = tested on: Human LDL; test: Cu++-mediated LDL oxidation, TBARS (Example 16); conditions: 250 μM compound, followed for 5 hours; control lag phase about 2 hours
Method: Human LDL was isolated from plasma of healthy donors by single vertical spin centrifugation (see Chung et al., Methods Enzymol. 128:181-209, 1986) and used within 24-48 hours of preparation. LDL (50 μg/mL) was incubated at 37° C. in 50 mM chelex-treated phosphate buffer, pH 7.4, alone or in the presence of 5 μM CuCl2 or 5 μM CuCl2 plus various concentrations of the LR compounds. After 5 hours of incubation, aliquots from each reaction mixture were removed for measurement of thiobarbituric acid-reacting substances (TBARS) as described in Satoh, Clin. Chim. Acta 90:37-43, 1978. Briefly, 250 μL of 20% trichloroacetic acid was added to 500 μL of sample aliquot, followed by 750 μL of 1% […]. The samples then were vortexed and incubated in a boiling water bath for 10 minutes. Upon cooling, the samples were centrifuged for 5 minutes at 5000 rpm. Absorbance of the supernatant was taken at 532 nm, and expressed as MDA equivalents using 1,1,3,3-tetramethoxypropane as standards. For fatty acid oxidation studies, linoleic acid (5#mM) was incubated alone or in the presence of 1 mM LR compound in […] phosphate buffer, pH 7.4, for 7 days at 37° C. Aliquots from each reaction mixture were withdrawn periodically for measurement of TBARS as described above.
Results are shown in FIG. 23A, where values are provided as means±SD of two independent experiments (n=4 for each treatment). In separate experiments, the time course for the oxidative modification fo LDL by Cu^++ in the presence of 250 μM compound was followed for 5 hours and aliquots for each time interval were assayed for TBARS. Values in FIG. 23B are means±SD of two independent experiments (n=4 per treatment).

[6] = tested on: Human LDL; test: Cu++-mediated oxidation of LDL, TBARS (Example 9); conditions: 5 μM CuCl2, 10-250 μM compound, 5 hours, 37° C.
Method: The ability of the LR compounds to inhibit lipid peroxidation was tested using Cu^++-mediated lipid oxidation, a common in vitro model for studies on lipoxidative modifications of proteins. The effects of the LR compounds on lipid peroxidation were studied using Cu^++-mediated oxidation of LDL. Human LDL (50 μg of protein/mL) was incubated at 37° C. in chelex-treated PBS buffer alone or in the presence of 5 μM CuCl2 or 5 μM CuCl2 plus various concentrations of the inhibitor compounds (10-250 μM). After 5 hours of incubation, the amount of thiobarbituric acid reactive substances (expressed as malondialdehyde (MDA) equivalents) generated in the reaction mixture was calculated according to methods described by Dillon et al., Life Sci. #72:1583-1594, 2003. Briefly, aliquots from each sample were precipitated with 20% trichloroacetic acid, centrifuged and an equal volume of 1% thiobarbituric acid was added to the supernatant. The samples then were heated to 95° C. for 10 minutes, and upon cooling, the absorbance was read at 532 nm. Hydrolyzed tetraethoxypropane was used as a standard for the MDA equivalent calculation.

IC50 [4] | SMILES | increase in CML-AGE and nitrotyrosine staining [1] | lipid-lowering effects [2] | effect on superoxide production [3] | time course of Cu++-mediated oxidation of LDL [5] | inhibition of Cu++-mediated LDL oxidation (lipid peroxidation) [6] | inhibition of Cu++-mediated LDL oxidation (lipid peroxidation) ([6]; listed as pyridoxamine)
2750 µM | N=C(N)NN [AG, aminoguanidine, reference compound] | attenuated | lipid-lowering effects | little or no effect | – | – | –
– | Cc1ncc(CO)c(CN)c1O [PM, pyridoxamine, reference compound] | – | lipid-lowering effects | – | no effect | no effect | minimal effects
– | CCOC(=O)[C@H](CCc1ccccc1)N[C@@H](C)C(=O)N1[C@H](C(=O)O)C[C@@H]2CCC[C@@H]21 [ramipril] | attenuated | – | – | – | – | –
